Columns and labels:
[1] = tested on: Mouse fibrosarcoma Meth A; test: TEST 1: antitumor activity of WF 2015 A in experimental tumor system in mice (Meth A); format: in vivo, mouse (Balb/c); settings: at 14 days, mean ± S.E., n = 5, Control 1136.6 ± 138.3
Experimental: The antitumor activity of WF 2015 A was determined in experimental tumor system in mice.
Mouse fibrosarcoma Meth A was implanted intradermally into Balb/c mice (female, 8 weeks age) at an inoculum size of 1×10^5 cells per mouse. Twenty-four hours after the implantation of tumor cells, graded doses of WF 2015 A were administered to the mice intravenously. Treatments were once a day on day 1, 2, 3, 4 and 7, 8, 9, 10 after the tumor inoculation. Control animals received intravenous doses of physiological saline solution. The injection volume was 0.2 ml in all experiments. Five mice were used for each experimental group.
Tumor weight at 14 days after administration, as derived from caliper measurements of the length and width of tumors, was calculated by the formula: Tumor weight (mg)=1/2×a×b^2, where a represents the length and b represents the width (mm).

[2] = tested on: Human lung adenocarcinoma A549 cell; test: TEST 2: in vitro cytotoxicity of WF 2015, A549 cells; format: cell-based; settings: 120 hours incubation, 37° C.
Experimental: (§1) Human lung adenocarcinoma A549 cell and mouse lymphoma EL-4 cell were used in this study. A549 cells were propagated as monolayer culture in Dulbecco's medium supplemented with 10% heat inactivated fetal bovine serum (FBS), penicillin G (60 μg/ml) and streptomycin (20 μg/ml) and harvested by trypsinization. EL-4 cells were maintained in RPMI medium supplemented with 10% FBS and the antibiotics in culture flasks.
(§2) Exponentially growing cells of A 549 or EL-4, which harvested from the cultures, were suspended in flask in the appropriate medium (Dulbecco's or RPMI medium supplemented with 10% FBS and antibiotics) at a concentration of 2×10^4 cells/ml or 2×10^5 cells/ml. respectively. Cells were treated with the graded doses of WF 2015 in plastic tissue culture dishes.
(§3) Concentration of the substance required for 50% inhibition of cell growth (IC50 value, μg/ml) was determined by plotting the logarithm of the drug concentration versus the growth rate (percentage of control) of the treated cells after 120 hours incubation for A 549 cells and 48 hours incubation for EL-4 cells at 37° C. in humidified atmosphere of 5% carbon dioxide.

[3] = tested on: C57BL/6 responder cells (mixed lymphocyte reaction); test: TEST 4: suppression of in vitro mixed lymphocyte reaction (MLR); format: cell-based, mouse (C57BL/6, BALB/C); settings: 4080 min
Experimental: The MLR tests were carried out in microtiter plates, with each well containing specified concentration of WF 2015 A and 5×10^5 C57BL/6 responder cells (H-2^b), 5×10^5 mitomycin C treated (25 μg/ml mitomycin C at 37° C. for 30 minutes) BALB/C stimulator cells (H-2^d) in 0.2 ml RPMI 1640 medium, supplemented with 10% fetal calf serum, 2mM glutamine, 3×10^-5 M 2-mercaptoethanol, 24 mM sodium bicarbonate, penicillin (50 unit/ml) and streptomycin (50 μ/ml). The cells were incubated at 37° C. in a humidified atmosphere of 5% CO2 :95% air for 68 hours and pulsed with ^3 H-thymidine (0.5 μCi) 4 hours before the cells were collected. Radio-activity of the cells was assayed by B-counter. From the resultant data, MLR suppression (%) was calculated.

Human MX-1 mammary = test: TEST 5: antitumor activity in vivo (human MX-1 mammary in nude mice); parameters: species or system human tumor in BALB/c nu/nu mice; settings: day 0→4, 7→11, 14→18, evaluated day 21, n = 8
Experimental: Human MX-1 mammary (each fragment, 3×3×3 mm), maintained s.c. by serial passage in female BALB/c nu/nu mice aged 6 weeks was implanted s.c. to female BALB/c nu/nu mice on day 0, and WF 2015 A or vehicle were given i.v. to the mice once a day on specified days (day0→4, day 7→11 and day 14→18).
Tumor weight was calculated as follows: (Tumor length and width were measured by caliper.)
Tumor weight (mg)=1/2×a×b^2, where a represents length and b represents width (mm).
Tumor weights (initial) and (last) were calculated on the first injection day (just before dosing) and on day 21, (the last evaluation day), respectively.
Eight mice were used for each test group and each vehicle-treated control group, respectively.
Drug efficacy was expressed as tumor growth inhibition (%).

mouse lymphoma EL-4 cell = test: TEST 2: in vitro cytotoxicity of WF 2015, EL-4 cells; format: cell-based; settings: 48 hours incubation, 37° C.
Experimental: as §1, §2, §3

ICR strain mice = test: TEST 3: acute toxicity of WF 2015 in mice; format: in vivo, mouse (ICR); settings: 100 mg/kg once a day for 5 days, 5 female ICR mice
[4] = Solubility of WF 2015 A and B (physicochemical properties)

Structure (SMILES): CO[C@@H]1[C@H](OC(=O)/C=C/C(O)C(C)O)CC[C@]2(CO2)[C@H]1[C@@]1(C)O[C@@H]1CC=C(C)C (some centres unmarked) [WF 2015 A]
- Tumor weight ([1]; 1.0 mg/kg i.v. once a day on day 1, 2, 3, 4 and 7, 8, 9, 10): 864 ± 108.7 mg
- Tumor weight ([1]; 3.3 mg/kg i.v. once a day on day 1, 2, 3, 4 and 7, 8, 9, 10): 682 ± 131.5 mg
- Tumor weight ([1]; 10 mg/kg i.v. once a day on day 1, 2, 3, 4 and 7, 8, 9, 10): 27.7 ± 105.6 mg
- IC50 value (concentration required for 50% inhibition of cell growth) [2]: 0.3 ng/mL
- MLR suppression (%) ([3]; 0.0066 ng/ml): 0.0%
- MLR suppression (%) ([3]; 0.02 ng/ml): 0.4%
- MLR suppression (%) ([3]; 0.066 ng/ml): 8.5%
- MLR suppression (%) ([3]; 0.2 ng/ml): 9.4%
- MLR suppression (%) ([3]; 6.6 ng/ml): 49.1%
- MLR suppression (%) ([3]; 20 ng/ml): 86.2%
- MLR suppression (%) ([3]; 40 ng/ml): 88.0%
- MLR suppression (%) ([3]; 161 ng/ml): 87.3%
- MLR suppression (%) ([3]; 1,250 ng/ml): 89.0%
- MLR suppression (%) ([3]; 10,000 ng/ml): 94.4%
- Tumor Growth Inhibition (%) (Human MX-1 mammary; 10 mg/kg i.v. once a day): 41.2%
- Tumor Growth Inhibition (%) (Human MX-1 mammary; 30 mg/kg i.v. once a day): 62.6%
- IC50 value (concentration required for 50% inhibition of cell growth) (mouse lymphoma EL-4 cell): 0.65 ng/mL
- Acute toxicity, abnormal symptom of the mice (ICR strain mice): no abnormal symptom of the mice was observed
- Solubility ([4]; Chloroform, methanol, acetone, ethanol): Soluble
- Solubility ([4]; n-Hexane, water): Insoluble

Reference: patent publication US4910017A, “New compounds WF 2015 A and B” (Fujisawa Pharmaceutical Company, Ltd., priority 1987, dated 1990)
